# “Also recorded” adds a separate entry of the source. Where a SMILES comes first, the peptide text is derived from it. The star is where a group is joined. pNA = O=[N+]([O-])c1ccc(N*)cc1
# T1: aminopeptidase of L. lactis subsp. cremoris Wg2 (Lactococcus lactis subsp. cremoris, UniProt P0C2T8)
# T1 sequence (P0C2T8 1-846): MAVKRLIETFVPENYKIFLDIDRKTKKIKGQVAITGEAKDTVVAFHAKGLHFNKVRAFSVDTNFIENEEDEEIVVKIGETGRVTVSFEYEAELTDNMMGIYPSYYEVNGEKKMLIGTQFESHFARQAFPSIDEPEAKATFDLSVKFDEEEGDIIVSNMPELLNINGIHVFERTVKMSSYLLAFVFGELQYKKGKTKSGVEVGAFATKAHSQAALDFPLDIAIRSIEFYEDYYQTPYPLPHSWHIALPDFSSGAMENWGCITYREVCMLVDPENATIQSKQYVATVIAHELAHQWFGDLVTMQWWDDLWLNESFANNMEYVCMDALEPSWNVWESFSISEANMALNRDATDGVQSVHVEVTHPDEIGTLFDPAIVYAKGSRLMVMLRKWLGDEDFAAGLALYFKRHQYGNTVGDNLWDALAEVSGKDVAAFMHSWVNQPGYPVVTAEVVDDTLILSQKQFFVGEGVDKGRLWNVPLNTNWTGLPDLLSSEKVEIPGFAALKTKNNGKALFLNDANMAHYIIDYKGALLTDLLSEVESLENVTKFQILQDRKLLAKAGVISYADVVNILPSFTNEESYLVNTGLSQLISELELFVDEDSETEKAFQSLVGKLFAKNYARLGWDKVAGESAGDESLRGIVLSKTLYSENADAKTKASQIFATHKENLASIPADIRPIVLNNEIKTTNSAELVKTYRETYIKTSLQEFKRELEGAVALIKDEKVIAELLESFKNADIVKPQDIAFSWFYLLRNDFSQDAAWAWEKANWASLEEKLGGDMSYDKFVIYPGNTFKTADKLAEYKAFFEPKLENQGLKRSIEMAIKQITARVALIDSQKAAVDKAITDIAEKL
# B1: aminopeptidase of L. lactis subsp. cremoris Wg2 (Lactococcus cremoris) (protein)
# chain: T1 sequence (P0C2T8 1-846)
# Assays:
# [1] = biological target: T1, aminopeptidase of L. lactis subsp. cremoris Wg2; format: biochemical
# [2] = biological target: T1, aminopeptidase of L. lactis subsp. cremoris Wg2; assay: Hydrolysis of peptides detected by thin-layer chromatography (TLC); format: biochemical; parameters: The cell extract obtained after sonication and centrifugation of L. lactis subsp. cremoris Wg2; endogenous in cells; host or cells: Proteinase-negative variant of Lactococcus lactis subsp. cremoris Wg2; Enzyme purified from the cell-free extract by DEAE-Sephacel, phenyl-Sepharose, Sephadex G-100 SF and MA7P HPLC; not recombinant; key to Activity: + : hydrolysis; - : no hydrolysis to be observed; conditions: for hydrolysis of peptides (in words): peptide as substrate of the aminopeptidase; for Activity: substrate specificity, 2 mM substrate, 20 mM HEPES pH 7, 60 min. at 30°C, TLC
# Experimental: Hydrolysis of several peptides was detected by thin-­layer chromatography (TLC). Peptidase activity was determined as follows: the reaction mixture containing 2 mM substrate in 20 mM 4-(2-hydroxyethyl)-1-piperazine-ethanesulphonic acid (HEPES) pH 7 and a suitable amount of enzyme was incubated for 60 min. at 30°C. The reaction mixture (10 microliter) was then placed on a precoated silica gel 60 plate having a layer thickness of 0.25 cm (Merck, Darmstadt, West-Germany). A 75% (wt./vol.) phenol/water mixture and in some cases a 4/1/1 (vol./vol./vol.) mixture of n-butanol, acetic acid and water was used as mobile phase. As a control, 2 mM of each standard peptide was also placed on the plate. The silica gels were coloured by spraying them with 0.1% (wt./vol.) ninhydrin in 99% ethanol. Peptides and amino acids became visible after incubation of the silica gel in an oven for 5 min. at 80°C.
# [3] = biological target: T1, aminopeptidase of L. lactis subsp. cremoris Wg2; format: biochemical; remark: listed apart in the source
# [4] = biological target: T1, aminopeptidase of L. lactis subsp. cremoris Wg2; assay: Hydrolysis of lysyl-p-nitroanilide / X-p-nitroanilide substrates (release of p-nitroanilide at 410 nm); conditions: for Relative activity (%): relative hydrolysis velocity of X-p-nitroanilide substrates
# [5] = biological target: T1, aminopeptidase of L. lactis subsp. cremoris Wg2; assay: as above; format: biochemical; parameters: The cell extract obtained after sonication and centrifugation of L. lactis subsp. cremoris Wg2; endogenous in cells; host or cells: Proteinase-negative variant of Lactococcus lactis subsp. cremoris Wg2; Enzyme purified from the cell-free extract by DEAE-Sephacel, phenyl-Sepharose, Sephadex G-100 SF and MA7P HPLC; not recombinant; conditions: relative hydrolysis velocity of X-p-nitroanilide substrates
# Experimental: Hydrolysis of lysyl-p-nitroanilide was determined by the method of Exterkate, Neth. Milk Diary J. 29, 1975, 303-318. A 2 mM solution of lysyl-p-nitroanilide was incubated for 15 minutes with a suitable amount of enzyme. The reaction was stopped by adding acetic acid up to a final concentration of 10%, and the amount of p-nitroanilide was measured at 410 nm (Hitachi U-1100 spectrophotometer).
# All measurements of enzyme activities were carried out at 30°C in 20 mM HEPES pH 7, unless specified.
# The highest activity was found for lysyl-p-nitroanilide and to a lesser extent for leucyl-p-nitroanilide. […] The affinity of the enzyme for lysyl-p-nitroanilide was determined.
# [6] = substrate: NCCCCC(N)C(=O)Nc1ccc([N+](=O)[O-])cc1; assay: purified protein, by the assay type; conditions: other: Lineweaver-Burk plot, substrate of the aminopeptidase; pH 7.0; 30.0 °C
molecule,measurement,setting,value
NC(=O)CI [iodoacetamide],effect of chemical reagents on the aminopeptidase activity (in words),[1],inhibitory effect; also recorded: strong inhibition
"COC(CNC(=O)c1ccccc1OCC(=O)O)[CH2][Hg][OH] (stereo not drawn) [mersalyl, O-(3-hydroxymercuri-2-methoxypropyl) carbamyl phenoxyacetate]",effect of chemical reagents on the aminopeptidase activity (in words),[1],completely inhibited; also recorded: strong inhibition
Phe-Leu,hydrolysis of peptides (in words),[2],does not prove capable of significant hydrolysis
same,Activity,[2],-
Leu-Leu,hydrolysis of peptides (in words),[2],hydrolyses
same,Activity,[2],+
[Mg+2] [Mg⁺⁺],inhibitory effect of divalent cations on the enzyme activity (in words),[1],no inhibitory effect at all
same,"restoration of the activity of the enzyme treated with 1,10-phenanthroline (in words)",[1],could not restore the enzyme activity
OCCS [β-mercaptoethanol],effect of chemical reagents on the aminopeptidase activity (in words),[1],no inhibitory effect; also recorded: insensitive
same,inactivating effects of pCMB and mersalyl undone by reducing agent (in words),[3],completely undone
benzoyl-glycyl-lysine,hydrolysis of peptides (in words),[2],does not seem capable of hydrolysis
"CCN1C(=O)C=CC1=O [NEM, N-ethylmaleimide]",effect of chemical reagents on the aminopeptidase activity (in words),[1],inhibitory effect; also recorded: strong inhibition
alanyl-alanine [Ala-Ala],hydrolysis of peptides (in words),[2]; listed as ala-ala,does not prove capable of significant hydrolysis
same,hydrolysis of peptides (in words),[2]; listed as alanyl-alanine,not
same,Activity,[2],-
[Ca+2] [Ca⁺⁺],inhibitory effect of divalent cations on the enzyme activity (in words),[1],no inhibitory effect at all
same,"restoration of the activity of the enzyme treated with 1,10-phenanthroline (in words)",[1],could not restore the enzyme activity
"NCCCCC(N)C(=O)Nc1ccc([N+](=O)[O-])cc1 (stereo not drawn) [Lys-pNA, lysyl-p-nitroanilide]",hydrolysis of p-nitroanilide substrates (in words),[4],hydrolyses
same,maximum peptide hydrolysis velocity,[4]; Lineweaver-Burk plot,1 millimol/min./mg
same,Relative activity (%),[4],100%
O=C(O)CN(CCN(CC(=O)O)CC(=O)O)CC(=O)O [EDTA],inhibition of the enzyme activity by chelating agents (in words),[1],complete inhibition; also recorded: sensitivity
"CSCCC(N)C(=O)Nc1ccc([N+](=O)[O-])cc1 (stereo not drawn) [Met-pNA, methionyl-p-nitroanilide]",Relative activity (%),[4],8%
C[C@H](N)C(=O)N1CCC[C@H]1C(=O)Nc1ccc([N+](=O)[O-])cc1 [Ala-Pro-pNA] (H-Ala-Pro-pNA),Relative activity (%),[5],4%
"O=S(=O)(O)c1cc[c]([Hg][Cl])cc1 [pCMBS, p-chloromercuribenzenesulphonate]",effect of chemical reagents on the aminopeptidase activity (in words),[1],completely inhibited; also recorded: strong inhibition
NC(Cc1ccccc1)C(=O)Nc1ccc([N+](=O)[O-])cc1 (stereo not drawn) [Phe-pNA],Relative activity (%),[4],4%
"O=C(O)c1cc[c]([Hg][Cl])cc1 [pCMB, p-chloromercuribenzoate]",effect of chemical reagents on the aminopeptidase activity (in words),[1],completely inhibited; also recorded: strong inhibition
N[C@@H](CCC(=O)O)C(=O)Nc1ccc([N+](=O)[O-])cc1 [Glu-pNA],Relative activity (%),[4],< 1%
NCC(=O)Nc1ccc([N+](=O)[O-])cc1 [Gly-pNA],Relative activity (%),[4],< 1%
carbobenzoxy-prolylalanine,hydrolysis of peptides (in words),[2],does not seem capable of hydrolysis
"c1cnc2c(c1)ccc1cccnc12 [1,10-phenanthroline]",inhibition of the enzyme activity by chelating agents (in words),[1],complete inhibition; also recorded: sensitivity
Phe-Val,hydrolysis of peptides (in words),[2],does not prove capable of significant hydrolysis
same,Activity,[2],-
O=C(Nc1ccc([N+](=O)[O-])cc1)C1CCCN1 (stereo not drawn) [Pro-pNA],Relative activity (%),[4],< 1%
CC(N)C(=O)Nc1ccc([N+](=O)[O-])cc1 (stereo not drawn) [Ala-pNA],Relative activity (%),[4],4%
"Bradykinin (RPPGFSPFR; Bradykinin; UniProt P01042 381-389, looked up)",hydrolysis of peptides (in words),[2],hydrolyses; also recorded: can also act on
same,Activity,[2],+
"OC(CS)C(O)CS (stereo not drawn) [DTT, dithiotreitol]",effect of chemical reagents on the aminopeptidase activity (in words),[1],no inhibitory effect; also recorded: insensitive
same,inactivating effects of pCMB and mersalyl undone by reducing agent (in words),[3],completely undone
"CC(C)CC(N)C(=O)Nc1ccc([N+](=O)[O-])cc1 (stereo not drawn) [Leu-pNA, leucyl-p-nitroanilide]",hydrolysis of p-nitroanilide substrates (in words),[4],hydrolyses
same,Relative activity (%),[4],24%
PMSF,effect of chemical reagents on the aminopeptidase activity (in words),[1],insensitive
carboxybenzoxy-phenylalanyl-alanine,hydrolysis of peptides (in words),[2],does not seem capable of hydrolysis
B1,Km,[6],550 µM
same,Vmax,[6],1000 µmol/min. mg protein
same,kcat,[6],1580 s⁻¹

# Source: patent publication EP0415470A2, “Aminopeptidase” (CAMPINA MELKUNIE B.V., priority 1989, dated 1991)
